Molecular target: T1, Toll-like receptor 7 (Homo sapiens, UniProt Q9NYK1)
T1 sequence (Q9NYK1 whole entry): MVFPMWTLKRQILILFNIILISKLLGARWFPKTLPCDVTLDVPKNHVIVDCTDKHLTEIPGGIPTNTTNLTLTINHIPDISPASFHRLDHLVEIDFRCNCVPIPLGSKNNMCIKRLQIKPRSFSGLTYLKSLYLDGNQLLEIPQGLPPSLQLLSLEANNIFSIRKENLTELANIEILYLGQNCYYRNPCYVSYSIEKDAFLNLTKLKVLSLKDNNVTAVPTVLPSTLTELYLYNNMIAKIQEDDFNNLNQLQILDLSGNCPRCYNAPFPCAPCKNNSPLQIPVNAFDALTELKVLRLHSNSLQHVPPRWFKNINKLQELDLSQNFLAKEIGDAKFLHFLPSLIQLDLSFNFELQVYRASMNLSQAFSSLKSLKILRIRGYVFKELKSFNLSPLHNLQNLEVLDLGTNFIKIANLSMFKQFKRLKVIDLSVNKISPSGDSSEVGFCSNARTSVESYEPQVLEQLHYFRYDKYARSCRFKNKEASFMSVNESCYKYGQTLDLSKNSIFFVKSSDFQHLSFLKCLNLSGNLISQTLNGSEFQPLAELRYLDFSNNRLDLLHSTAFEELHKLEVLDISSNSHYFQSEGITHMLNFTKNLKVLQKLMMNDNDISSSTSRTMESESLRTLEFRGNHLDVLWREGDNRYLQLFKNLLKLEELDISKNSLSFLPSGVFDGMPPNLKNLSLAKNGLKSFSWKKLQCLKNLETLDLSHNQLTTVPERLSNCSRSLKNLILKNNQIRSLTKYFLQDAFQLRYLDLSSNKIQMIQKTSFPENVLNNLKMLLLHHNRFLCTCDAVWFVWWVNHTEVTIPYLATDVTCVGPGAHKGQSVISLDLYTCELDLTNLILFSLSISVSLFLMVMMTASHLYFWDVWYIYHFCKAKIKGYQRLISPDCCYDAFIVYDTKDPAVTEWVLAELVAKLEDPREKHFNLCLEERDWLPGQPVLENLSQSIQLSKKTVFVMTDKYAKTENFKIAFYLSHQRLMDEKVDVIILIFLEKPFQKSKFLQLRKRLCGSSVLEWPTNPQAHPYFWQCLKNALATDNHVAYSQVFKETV
Description: Agonist activity at human TLR7 expressed in NF-kappaB-stimulated HEK293 cells assessed as induction of secreted alkaline phosphatase expression by reporter gene assay

Row | EC50 [nM] | SMILES
1 | 955 | Cc1nc2c(N)nc3ccccc3c2n1Cc1ccccc1
2 | 723 | CCCCc1nc2c(NO)nc3ccccc3c2n1Cc1ccccc1
3 | 873 | CCCCc1nc2c(NN)nc3ccccc3c2n1Cc1ccccc1
4 | 7710 | CCN(CC)Cc1nc2c(N)nc3ccccc3c2n1CC(C)(C)O
5 | 479 | CCCCCCc1nc2c(N)nc3ccccc3c2n1Cc1ccccc1
6 | 262 | C=CCCc1nc2c(N)nc3ccccc3c2n1Cc1ccccc1
7 | 209 | C#CCCc1nc2c(N)nc3ccccc3c2n1Cc1ccccc1
8 | 385 | CCNCc1nc2c(N)nc3ccccc3c2n1Cc1ccccc1
9 | 3350 | CCCCCCCCCc1nc2c(N)nc3ccccc3c2n1Cc1ccccc1
10 | 472 | CCc1nc2c(N)nc3ccccc3c2n1Cc1ccccc1
11 | 8390 | CCN(CCC#N)Cc1nc2c(N)nc3ccccc3c2n1CC(C)(C)O
12 | 647 | CCCc1nc2c(N)nc3ccccc3c2n1Cc1ccccc1
13 | 822 | CCCCCCCc1nc2c(N)nc3ccccc3c2n1Cc1ccccc1
14 | 59.1 | CCCCc1nc2c(N)nc3ccccc3c2n1Cc1ccccc1
15 | 91.5 | CCCCCc1nc2c(N)nc3ccccc3c2n1Cc1ccccc1
16 | 2120 | CC(C)Cn1cnc2c(N)nc3ccccc3c21 [IMIQUIMOD]

Source: ChEMBL document CHEMBL1158593, “Structure-activity relationships in human toll-like receptor 7-active imidazoquinoline analogues” (J Med Chem, 2010)
